Patent publication US6951856B2, “Arylethene-sulfonamides” (Actelion Pharmaceuticals Ltd., priority 2000, dated 2005)
pIC50: −log10 of the molar value.

What was measured:
[1] = molecular target: T1, human recombinant ETA receptors (Homo sapiens, UniProt P25101); test: Inhibition of [125I]ET-1 binding to membranes from CHO cells carrying human ETA receptors; settings: CHO cell membranes, 8 pM [125I]ET-1, 2 h at 20° C.
T1 construct: expressed in transfected cells; host or cells: CHO cells (microsomal membranes)
T1 sequence (P25101 21-427): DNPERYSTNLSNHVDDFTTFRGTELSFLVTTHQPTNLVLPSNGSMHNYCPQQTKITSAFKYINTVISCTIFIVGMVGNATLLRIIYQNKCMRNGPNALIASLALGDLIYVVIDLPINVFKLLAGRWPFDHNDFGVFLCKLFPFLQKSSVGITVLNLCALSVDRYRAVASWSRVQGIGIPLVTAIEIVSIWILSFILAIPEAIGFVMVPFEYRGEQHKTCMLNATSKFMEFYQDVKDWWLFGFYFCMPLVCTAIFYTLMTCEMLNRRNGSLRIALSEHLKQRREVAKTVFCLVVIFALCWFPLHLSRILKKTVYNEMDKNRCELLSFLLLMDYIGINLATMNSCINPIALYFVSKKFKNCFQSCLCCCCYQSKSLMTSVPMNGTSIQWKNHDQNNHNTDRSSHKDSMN
Description: (§1) 1) Inhibition of Endothelin Binding to Membranes from CHO Cells Carrying Human ET Receptors
(§2) For competition binding studies, membranes of CHO cells expressing human recombinant ETA or ETB receptors were used. Microsomal membranes from recombinant CHO cells were prepared and the binding assay made as previously described (Breu V., et al, FEBS Lett 1993; 334:210).
(§3) The assay was performed in 200 uL 50 mM Tris/HCl buffer, pH 7.4, including 25 mM MnCl2, 1 mM EDTA and 0.5% (w/v) BSA in polypropylene microtiter plates. […] After 2 h, the membranes were filtered on filterplates containing GF/C filters (Unifilterplates from Canberra Packard S.A. Zürich, Switzerland). To each well, 50 uL of scintillation cocktail was added (MicroScint 20, Canberra Packard S.A. Zürich, Switzerland) and the filter plates counted in a microplate counter (TopCount, Canberra Packard S.A. Zürich, Switzerland).
(§4) All the test compounds were dissolved, diluted and added in DMSO.

[2] = molecular target: T2, human recombinant ETB receptors (Homo sapiens, UniProt P24530); test: Inhibition of [125I]ET-1 binding to membranes from CHO cells carrying human ETB receptors
T2 construct: expressed in transfected cells; host or cells: CHO cells (microsomal membranes)
T2 sequence (P24530 27-442): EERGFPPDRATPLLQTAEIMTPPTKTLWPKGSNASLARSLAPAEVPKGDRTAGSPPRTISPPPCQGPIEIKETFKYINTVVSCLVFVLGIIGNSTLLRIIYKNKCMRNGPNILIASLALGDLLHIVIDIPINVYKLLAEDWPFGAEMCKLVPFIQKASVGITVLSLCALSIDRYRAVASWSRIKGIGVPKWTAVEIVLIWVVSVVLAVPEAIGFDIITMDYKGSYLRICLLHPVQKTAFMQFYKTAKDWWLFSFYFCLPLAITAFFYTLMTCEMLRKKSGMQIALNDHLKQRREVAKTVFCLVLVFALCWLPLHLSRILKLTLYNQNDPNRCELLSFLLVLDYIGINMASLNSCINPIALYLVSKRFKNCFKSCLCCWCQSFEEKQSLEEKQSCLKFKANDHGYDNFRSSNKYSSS
Description: as §1, §2, §3, §4

SMILES	pIC50 [1]	pIC50 [2]
Cc1ccc(-c2c(NS(=O)(=O)/C=C/c3ccccc3)ncnc2OCCOc2ncccn2)cc1 [Example 2, 2-phenyl-ethenesulfonic acid {6-[2-(pyrimidin-2-yloxy)-ethoxy]-5-p-tolyl-pyrimidin-4-yl}-amide]	7.60	5.74
Cc1ccc(-c2c(NS(=O)(=O)/C=C/c3ccccc3)ncnc2OCCOc2ccc(Br)cc2)cc1 [Example 3, 2-phenyl-ethenesulfonic acid {6-[2-(4-bromo-phenoxy)-ethoxy]-5-p-tolyl-pyrimidin-4-yl}-amide]	7.33	6.14
Cc1ccc(-c2c(NS(=O)(=O)/C=C/c3ccccc3)ncnc2OCCOc2cnccn2)cc1 [Example 4]	6.56	5.07
Cc1ccc(-c2c(NS(=O)(=O)/C=C/c3ccccc3)ncnc2OCCOc2ccc(C(F)(F)F)cn2)cc1 [Example 5, 2-Phenyl-ethenesulfonic acid {5-p-tolyl-6-[2-(5-trifluoromethyl-pyridin-2-yloxy)-ethoxy]-pyrimidin-4-yl}-amide]	7.89	6.89
Cc1ccc(-c2c(NS(=O)(=O)/C=C/c3ccccc3)ncnc2OCCOc2ccc(Cl)cc2)cc1 [Example 6]	7.08	5.87
Cc1ccc(-c2c(NS(=O)(=O)/C=C/c3ccccc3)ncnc2OCCOc2ccc(Br)cn2)cc1 [Example 11]	7.73	6.58
Cc1ccc(-c2c(NS(=O)(=O)/C=C/c3ccccc3)ncnc2OCCOc2nc3ccccc3o2)cc1 [Example 16]	7.21	5.95
COc1cnc(OCCOc2ncnc(NS(=O)(=O)/C=C/c3ccccc3)c2-c2ccc(C)cc2)nc1 [Example 21]	7.83	6.13
Cc1ccc(/C=C/S(=O)(=O)Nc2ncnc(OCCOc3ncc(Br)cn3)c2-c2ccc(C)cc2)cc1 [Example 23]	8.09	6.57
Cc1ccc(/C=C/S(=O)(=O)Nc2ncnc(OCCOc3ncc(Cl)cn3)c2-c2ccc(C)cc2)cc1 [Example 24]	7.66	6.18
Cc1ccc(-c2c(NS(=O)(=O)/C=C/c3ccc(Cl)cc3)ncnc2OCCOc2ncc(Br)cn2)cc1 [Example 27]	7.94	6.71
C/C(=C\c1ccccc1)S(=O)(=O)Nc1ncnc(OCCOc2ncc(Br)cn2)c1-c1ccc(C)cc1 [Example 30]	7.38	5.04
CCc1ccc(-c2c(NS(=O)(=O)/C=C/c3ccccc3)ncnc2OCCOc2ncc(Br)cn2)cc1 [Example 36]	7.70	5.47
Cc1ccc(-c2c(NS(=O)(=O)/C=C/c3ccccc3)ncnc2OCCOc2ncc(Br)cn2)cc1C [Example 40]	8.21	6.20
Cc1ccc(-c2c(NS(=O)(=O)/C=C/c3cccc(C)c3)ncnc2OCCOc2ncc(Br)cn2)cc1 [Example 41]	8.27	5.75
O=S(=O)(/C=C/c1ccccc1)Nc1ncnc(OCCOc2ccc(C(F)(F)F)cn2)c1-c1ccc(Cl)cc1 [Example 45]	7.71	6.48
O=S(=O)(/C=C/c1ccccc1)Nc1ncnc(OCCOc2ncc(Cl)cn2)c1-c1ccc(Cl)cc1 [Example 47]	8.15	6.12
O=S(=O)(/C=C/c1ccccc1)Nc1ncnc(OCCOc2ncc(F)cn2)c1-c1ccc(Cl)cc1 [Example 50]	7.51	5.16
CSc1cnc(OCCOc2ncnc(NS(=O)(=O)/C=C/c3ccccc3)c2-c2ccc(Cl)cc2)nc1 [Example 51]	8.34	6.76
Cc1cccc(/C=C/S(=O)(=O)Nc2ncnc(OCCOc3ncc(Br)cn3)c2-c2ccc(Cl)cc2)c1 [Example 52]	8.12	5.83
COc1cnc(OCCOc2ncnc(NS(=O)(=O)/C=C/c3cccc(C)c3)c2-c2ccc(Cl)cc2)nc1 [Example 53]	7.68	5.87
O=S(=O)(/C=C/c1ccc(Cl)cc1)Nc1ncnc(OCCOc2ncc(Br)cn2)c1-c1ccc(Cl)cc1 [Example 54]	7.85	6.74
Cc1ccc(/C=C/S(=O)(=O)Nc2ncnc(OCCOc3ncc(Cl)cn3)c2-c2ccc(Cl)cc2)cc1 [Example 60]	7.52	6.25

SMILES	pIC50 [1]	pIC50 [2]
C/C(=C\c1ccccc1)S(=O)(=O)Nc1ncnc(OCCOc2ncc(Br)cn2)c1-c1ccc(Cl)cc1 [Example 62]	7.24	5.31
O=S(=O)(/C=C/c1ccccc1)Nc1nc(-c2ccncc2)nc(OCCOc2ncc(Br)cn2)c1-c1ccc(Cl)cc1 [Example 65]	7.77	5.60
Cc1ccc(-c2c(NS(=O)(=O)/C=C/c3cccs3)ncnc2OCCOc2ncc(Cl)cn2)cc1 [Example 69]	8.22	5.78
Cc1ccc(-c2c(NS(=O)(=O)/C=C/c3cccs3)ncnc2OCCOc2ccc(C(F)(F)F)cn2)cc1 [Example 70]	7.80	6.59
Cc1ccc(-c2c(NS(=O)(=O)/C=C/c3cccs3)ncnc2OCCOc2ccc(Br)cn2)cc1 [Example 71]	7.77	6.29
Cc1ccc(-c2c(NS(=O)(=O)/C=C/c3cccs3)nc(-c3ncccn3)nc2OCCOc2ncc(Br)cn2)cc1 [Example 72]	8.05	5.62
Cc1ccc(-c2c(NS(=O)(=O)/C=C/c3cccs3)nc(-c3ncccn3)nc2OCCOc2ncc(Cl)cn2)cc1 [Example 73]	8.12	5.32
COc1cnc(OCCOc2nc(-c3ncccn3)nc(NS(=O)(=O)/C=C/c3cccs3)c2-c2ccc(C)cc2)nc1 [Example 74]	8.11	5.45
Cc1ccc(-c2c(NS(=O)(=O)/C=C/c3cccs3)nc(-c3ncccn3)nc2OCCOc2ncc(C)cn2)cc1 [Example 75]	7.75	< 5.00
COc1cnc(OCCOc2nc(-c3ccncc3)nc(NS(=O)(=O)/C=C/c3ccccc3)c2-c2ccc(C)cc2)nc1 [Example 83]	7.56	5.12
COc1cnc(OCCOc2ncnc(NS(=O)(=O)/C=C/c3ccccc3)c2-c2ccc(Br)cc2)nc1 [Example 86]	8.34	6.71
O=S(=O)(/C=C/c1ccccc1)Nc1ncnc(OCCOc2ncc(Cl)cn2)c1-c1ccc(Br)cc1 [Example 87]	8.41	6.36
O=S(=O)(/C=C/c1cccs1)Nc1ncnc(OCCOc2ncc(Cl)cn2)c1-c1ccc(Br)cc1 [Example 89]	8.34	5.91
COc1cnc(OCCOc2ncnc(NS(=O)(=O)/C=C/c3cccs3)c2-c2ccc(Br)cc2)nc1 [Example 90]	8.37	6.47
O=S(=O)(/C=C/c1ccccc1)Nc1ncnc(OCCOc2ncc(C(F)(F)F)cn2)c1-c1ccccc1 [Example 95]	7.48	5.08
CSc1nc(NS(=O)(=O)/C=C/c2ccccc2)c(-c2ccccc2)c(OCCOc2ncc(Br)cn2)n1 [Example 101]	7.51	5.06
CS(=O)(=O)c1nc(NS(=O)(=O)/C=C/c2ccccc2)c(-c2ccccc2)c(OCCOc2ncc(Br)cn2)n1 [Example 107]	8.07	5.33
O=S(=O)(/C=C/c1ccccc1)Nc1nc(-c2ccncc2)nc(OCCOc2ncc(Br)cn2)c1-c1ccccc1 [Example 109]	7.41	< 5.00
COCCOc1nc(NS(=O)(=O)/C=C/c2ccccc2)c(-c2ccccc2)c(OCCOc2ncc(Br)cn2)n1 [Example 113]	7.83	< 5.00
COc1nc(NS(=O)(=O)/C=C/c2ccccc2)c(-c2ccccc2)c(OCCOc2ncc(Br)cn2)n1 [Example 114]	7.74	5.41
O=S(=O)(/C=C/c1ccccc1)Nc1nc(N2CCCCC2)nc(OCCOc2ncc(Br)cn2)c1-c1ccccc1 [Example 116]	7.60	< 5.00
COc1ccc(-c2c(NS(=O)(=O)/C=C/c3ccccc3)ncnc2OCCOc2ncc(Br)cn2)cc1 [Example 118]	8.01	6.00
COc1ccc(-c2c(NS(=O)(=O)/C=C/c3ccccc3)ncnc2OCCOc2ncc(OC)cn2)cc1 [Example 119]	7.26	6.13
